Data from patent US20020115704A1, “Treatment method” (priority 2000, published 2002).

Legend:
[1] = test system: 5-HT1A receptors or 5-HT1D receptors; conditions: cited from earlier work
female Macaca arctoides = test: Sexual behaviour of the male with the drug-treated female Macaca arctoides; assay type: in vivo; conditions: for Sexual desire and arousal in female primates: conclusion from the male's behaviour with the treated female; for Copulations with ejaculation (FIG. 1A) / Copulations without ejaculation (FIG. 1B) / Total number of copulations, with and without ejaculation pooled (FIG. 1C) / Number of short time mounts (FIG. 1D): i.m. to the female, n=4, vs saline; for Copulations with ejaculation (FIG. 1A) / Copulations without ejaculation (FIG. 1B): atipamezole 0.03 and 0.3 mg/kg, apomorphine 0.125 and 0.25 mg/kg, or combinations, 20 min observation; for Total number of copulations, with and without ejaculation pooled (FIG. 1C) / Number of short time mounts (FIG. 1D): same doses; for Total number of copulations, with and without ejaculation pooled (FIG. 1C): atipamezole F2,11=5.00, p=0.05; for Number of short time mounts (FIG. 1D): atipamezole F2,11=7.55, p<0.03
Procedure: This example investigated whether the administration a specific alpha2-adrenoceptor antagonist, atipamezole, a dopamine agonist, apomorphine, or their combination into a female Macaca arctoides produces changes in the sexual behaviour of the female with a male.
The experiments were performed using four female and two male Macaca arctoides monkeys born in captivity. The ages of the adult females were 13 and 16 years and those of the aged females 23 and 25 years. The ages of the males were 14 and 23 years. The females were sexually mature and with normal hormonal cycles.
During the testing period, the monkeys were housed individually in stainless-steel cages. They were fed commercially available food twice each day, and water was always available. Females were weighed before the first injection of each series and doses were adjusted accordingly when appropriate. Sexual behaviour was tested between 11.00 and 16.00 h. The same test cage and testing procedure were used in all experiments. One experienced observer, blind to the treatment, viewed the animals at a distance of about 0.5 m from the cage.
During the testing period, the couple being tested was housed in a single case (0.6×0.9×1.2 m) with two compartments. During the first 10 min of each session, a sliding wall made of steel bars separated the male and the female in the test cage. The monkeys could see and touch each other through this wall. Between the testing sessions, the female being tested was housed in another room with no visual contact with the male.
After i.m. administration of the studied compounds to the female, the observation of the sexual behaviour began as described subsequently. Ten minutes after the end of drug administration, the sliding wall between the male and the female was pulled away and the observation of sexual activity continued for the next 20 min. At the end of the observation period, the sliding wall was replaced and the female was taken to her home cage in another room.
The occurrence and duration of the following parameters were observed: perineal investigation, mounting, masturbation, ejaculation, male and female grooming, eye contact, tying, yawning, self-scratching, direct male aggression towards the female and teeth grinding. A single mount leading to ejaculation was counted as ejaculation. A single mount not leading to ejaculation was counted as a short term mount. If the interval between mounts was >30 s, the mount was considered to be separate. In Macaca arctoides, male ejaculation reached in copulation or masturbation can be recognised clearly on the basis of its stereotypic manifestations as described in Linnankoski et al. (Arch. Sexual Behav. 10:207-222, 1981).
The experiments were performed once every other day for three days/week. In each female, the effect of atipamezole (Orion Pharma, Turku, Finland) alone (0.03 and 0.3 mg/kg and saline control) was tested during the first two weeks. The effect of apomorphine (Sigma, St.Louis, Mo.) alone (0.125 and 0.25 mg/kg and saline control) was tested during the next two weeks. The combination of a low dose of atipamezole (0.03 mg/kg) with a low dose apomorphine (0.125 mg/kg), a high dose of atipamezole (0.3 mg/kg) with a high dose of apomorphine (0.25 mg/kg), or saline control (two saline injections) was studied during the last two weeks. Owing to the difference in their pharmacokinetic properties, atipamezole (or its saline control) was always administered 10 min before testing session and apomorphine (or its saline control) 20 min before the testing session. The order of testing various doses of drugs and saline control was randomised within each two week testing period. Each dose or the combination was tested twice and the average result of these two sessions was used in final calculations. The experiments were performed in a double-blind fashion.

[2] = test system: ovariectomised, oestrogen+progesterone-primed female rats; conditions: cited from earlier work
males [3] = conditions: apomorphine: human males; cited from earlier work
α2-adrenoceptor = conditions: cited from earlier work
[4] = test system: dopaminergic, GABAergic, serotonergic (such as 5-HT1A) receptors; conditions: cited from earlier work
males [5] = conditions: cited from earlier work
menopausal women = conditions: oral; cited from earlier work
postmenopausal women = conditions: cited from earlier work

## COc1ccccc1N1CCN(CCN2C(=O)c3ccccc3C(C)(C)C2=O)CC1 [ARC 239]
[1]
  Affinity on 5-HT1A receptors or 5-HT1D receptors: have affinity

## CC1c2ccccc2CN1CC1=NCCN1 (centres unmarked) [BRL 44408]
[1]
  Affinity on 5-HT1A receptors or 5-HT1D receptors: have affinity

## c1ccc2c(c1)OCC(C1=NCCN1)O2 (centres unmarked) [Idazoxan]
[1]
  Affinity on 5-HT1A receptors or 5-HT1D receptors: have affinity

## COC1(C2=NCCN2)COc2ccccc2O1 (centres unmarked) [RX821002, 2-methoxy idazoxan]
[1]
  Affinity on 5-HT1A receptors or 5-HT1D receptors: have affinity

## CN1CCc2cccc3c2[C@H]1Cc1ccc(O)c(O)c1-3 [apomorphine]
Female Macaca arctoides
  Sexual desire and arousal in female primates: ineffective
  Copulations with ejaculation (FIG. 1A): failed to be statistically significant
  Copulations without ejaculation (FIG. 1B): failed to be statistically significant
  Total number of copulations, with and without ejaculation pooled (FIG. 1C): not significant
  Number of short time mounts (FIG. 1D): no significant effect
[2]
  Sexual behaviour, lordosis response: facilitate
Males [3]
  Sexual arousal i.e. erections: increased

## CCC1(c2c[nH]cn2)Cc2ccccc2C1 [atipamezole, 4-(2-ethyl-2,3-dihydro-1H-inden-2-yl)-1H-imidazole]
α2-adrenoceptor
  α2-/α1-adrenoceptor selectivity ratio: high
[4]
  Affinity for other neurotransmitter receptors (dopaminergic, GABAergic, serotonergic, benzodiazepine): negligible affinity
Female Macaca arctoides
  Sexual desire and arousal in female primates: increases
  Copulations with ejaculation (FIG. 1A): failed to be statistically significant
  Copulations without ejaculation (FIG. 1B): failed to be statistically significant
  Total number of copulations, with and without ejaculation pooled (FIG. 1C): significant increase
  Number of short time mounts (FIG. 1D): dose-dependent increase
Males [5]
  Sexual activity (ejaculations produced by copulation and/or masturbation): increase

## COc1ccc2c(c1)CCN1C[C@H]3CCCN(S(C)(=O)=O)[C@H]3C[C@@H]21 [deleguamine, delequamine]
[1]
  Affinity on 5-HT1A receptors or 5-HT1D receptors: have affinity
[2]
  Sexual behaviour, lordosis response: facilitate

## Cc1ccc(N(CC2=NCCN2)c2cccc(O)c2)cc1 [phentolamine]
Menopausal women
  Sexual arousal, such as self-reported lubrication: mild improvement
Males [3]
  Sexual arousal i.e. erections: increase

## CCCc1nn(C)c2c(=O)[nH]c(-c3cc(S(=O)(=O)N4CCN(C)CC4)ccc3OCC)nc12 [sildenafil]
Postmenopausal women
  Sexual function: did not improve the sexual function significantly
Males [3]
  Sexual arousal i.e. erections: increase

## COC(=O)[C@@H]1[C@H]2C[C@H]3c4[nH]c5ccccc5c4CCN3C[C@@H]2CC[C@@H]1O [yohimbine]
[4]
  Affinity for other neurotransmitter receptors (dopaminergic, GABAergic, serotonergic, benzodiazepine): has affinity
